Experiment: Dyad photophysical properties in toluene, excited at 405 nm
Format: physicochemical
Set-up: ext coeff (abs max B) / brightness (abs max): unit not given here
Details: for ext coeff (405 nm) / brightness (405 nm): at 405 nm; for ext coeff (405 nm) / FWHM / QY (x405) / abs max B / abs max Qx / abs max Qy / ext coeff (abs max B) / em max: room temperature; for ext coeff (405 nm): in M-1 cm-1 (unit assumed); for FWHM: emission peak; for FWHM / QY (x405) / em max: excited at 405 nm; for QY (x405): fluorescence quantum yield; for brightness (405 nm) / brightness (abs max): molar absorption coefficient x fluorescence quantum yield; for brightness (405 nm): in M⁻¹cm⁻¹; for brightness (abs max): at abs max
Description: The photophysical properties of samples were tested in toluene at room temperature and excited at 405 nm.

SMILES	ext coeff (405 nm)	FWHM [nm]	QY (x405)	brightness (405 nm)	brightness (abs max)	abs max B [nm]	abs max Qx [nm]	abs max Qy [nm]	ext coeff (abs max B)	em max [nm]
COC(=O)c1ccc(C#Cc2cc3cc4nc(cc5[nH]c(cc6nc(c(OC)c2[nH]3)CC6(C)C)cc5C#Cc2ccc(-c3c5nc(cc6ccc(cc7nc(cc8ccc3[nH]8)C=C7)[nH]6)C=C5)cc2)CC4(C)C)cc1 [Dyad P1-BC1]	276,800	21	0.23	64,405	64,405	405	529	760	276,800	765
COC(=O)c1ccc(-c2c3nc(cc4ccc(cc5nc(cc6[nH]c2cc6C#Cc2ccc(CNC(=O)c6ccc(C7=C8C=CC(=N8)C=c8ccc9[n]8[Zn][n]8c(ccc87)C=C7C=CC(=N7)C=9)cc6)cc2)CC5(C)C)[nH]4)C=C3)cc1 [Dyad P4-C3]	318,900	–	0.07	22,648	23,813	407	532	656	335,300	659
COC(=O)c1ccc(-c2c(C(=O)OC)c3cc4nc(cc5[nH]c(c(OC)c6nc(cc2[nH]3)C(C)(C)C6)c(C(=O)OC)c5C#Cc2ccc(C3=C5C=CC(=N5)C=c5ccc6[n]5[Zn][n]5c(ccc53)C=C3C=CC(=N3)C=6)cc2)C(C)(C)C4)cc1 [Dyad P8-BC2]	227,600	29	0.20	46,569	52,298	408	538	769	255,600	777
COC(=O)c1ccc(-c2c3nc(cc4ccc(cc5nc(cc6[nH]c2cc6C#Cc2ccc(-c6c7nc(cc8ccc([nH]8)c(-c8c(C)cc(C)cc8C)c8nc(cc9ccc6[nH]9)C=C8)C=C7)cc2)CC5(C)C)[nH]4)C=C3)cc1 [P7-C1; P6-C3]	227,900	15	0.21	47,083	60,532	410	505	659	293,000	660
COC(=O)c1ccc(-c2c3nc(cc4ccc(cc5nc(cc6[nH]c2cc6C#Cc2ccc(C6=C7C=CC(=N7)C=c7ccc8[n]7[Zn][n]7c(ccc76)C=C6C=CC(=N6)C=8)cc2)CC5(C)C)[nH]4)C=C3)cc1 [P8-C2, methyl ester]	241,700	15	0.33	80,872	88,133	408	534	659	263,400	661
COC(=O)c1ccc(C2=c3ccc4[n]3[Zn][n]3c(ccc3C(c3ccc(C#Cc5ccc(C6=c7ccc8[n]7[Zn][n]7c(ccc7C=C7N=C(C=8)CC7(C)C)C=C7C=CC6=N7)cc5)cc3)=C3C=CC(=N3)C=4)C=C3C=CC2=N3)cc1 [P9-C4, methyl ester]	181,500	14	0.04	8,055	11,570	414	540	607	260,700	608
